In patent publication US20080233432A1, “Composition, Method for Fabricating Light-Emitting Element, Light-Emitting Element, Light-Emitting Device, and Electronic Device” (Semiconductor Energy Laboratory Co., Ltd., priority 2007, published 2008):

Assay: solubility test of organometallic complexes in various solvents
Assay type: physicochemical
Conditions: for solubility x in anisole: solvent having aromatic ring: anisole; for solubility x in toluene: solvent having aromatic ring: toluene; for solubility x in 2-ethoxyethanol / solubility x in ethanol / solubility x in isopropanol / solubility x in methanol / solubility x in diethyl ether: solvent not having aromatic ring; for solubility x in 2-ethoxyethanol: alcohol: 2-ethoxyethanol; for solubility x in ethanol: alcohol: ethanol; for solubility x in isopropanol: alcohol: isopropanol; for solubility x in methanol: alcohol: methanol
Experimental: In Example 1, the solubility of an organometallic complex having a pyrazine skeleton as described in Embodiment Mode 1 was evaluated. The evaluation was performed by examining the solubility in various solvents. For the solvent, toluene and anisole were each used as a solvent having an aromatic ring. Further, diethyl ether which is ether, and 2-ethoxyethanol, isopropanol, ethanol, and methanol which are alcohols were each used as a solvent not having an aromatic ring.
In addition, the solubility of btp2Ir(acac) (a structural formula (101) given below), which is disclosed in Nonpatent Document 1 was evaluated as a comparative sample A. In addition, the solubility of Ir(ppy)2(acac) (a structural formula (102) given below) was evaluated as a comparative sample B.

SMILES	solubility x in anisole	solubility x in toluene	solubility x in 2-ethoxyethanol	solubility x in ethanol	solubility x in isopropanol	solubility x in methanol	solubility x in diethyl ether
CC(=O)C=C(C)[O][Ir]([c]1ccccc1-c1ncc(-c2ccccc2)nc1-c1ccccc1)[c]1ccccc1-c1ncc(-c2ccccc2)nc1-c1ccccc1 [Sample 10, (acetylacetonato)bis(2,3,5-triphenylpyrazinato)iridium(III)]	⊚ (a double circle in the case of x≧1.2)	⊚ (a double circle in the case of x≧1.2)	⊚ (a double circle in the case of x≧1.2)	X (a cross in the case of x<0.6)	X (a cross in the case of x<0.6)	X (a cross in the case of x<0.6)	⊚ (a double circle in the case of x≧1.2)
CC(C)c1cnc(-c2[c-]cc(F)cc2)c(-c2ccc(F)cc2)n1.CC(C)c1cnc(-c2[c-]cc(F)cc2)c(-c2ccc(F)cc2)n1.O=C([O-])c1ccccn1.[Ir+3] [Sample 7]	⊚ (a double circle in the case of x≧1.2)	⊚ (a double circle in the case of x≧1.2)	⊚ (a double circle in the case of x≧1.2)	X (a cross in the case of x<0.6)	X (a cross in the case of x<0.6)	X (a cross in the case of x<0.6)	X (a cross in the case of x<0.6)
CC(=O)C=C(C)[O-].Fc1c[c-]c(-c2nccnc2-c2ccc(F)cc2)cc1.Fc1c[c-]c(-c2nccnc2-c2ccc(F)cc2)cc1.[Ir+3] [Sample 2]	⊚ (a double circle in the case of x≧1.2)	◯ (a circle in the case of 1.2>x≧0.9)	X (a cross in the case of x<0.6)	X (a cross in the case of x<0.6)	X (a cross in the case of x<0.6)	X (a cross in the case of x<0.6)	X (a cross in the case of x<0.6)
Cc1cnc(-c2[c-]cc(F)cc2)c(-c2ccc(F)cc2)n1.Cc1cnc(-c2[c-]cc(F)cc2)c(-c2ccc(F)cc2)n1.O=C([O-])c1ccccn1.[Ir+3] [Sample 5]	⊚ (a double circle in the case of x≧1.2)	⊚ (a double circle in the case of x≧1.2)	⊚ (a double circle in the case of x≧1.2)	⊚ (a double circle in the case of x≧1.2)	⊚ (a double circle in the case of x≧1.2)	X (a cross in the case of x<0.6)	X (a cross in the case of x<0.6)
CC(=O)C=C(C)[O-].[Ir+3].[c-]1ccccc1-c1nccnc1-c1ccccc1.[c-]1ccccc1-c1nccnc1-c1ccccc1 [Sample 1]	⊚ (a double circle in the case of x≧1.2)	◯ (a circle in the case of 1.2>x≧0.9)	X (a cross in the case of x<0.6)	X (a cross in the case of x<0.6)	X (a cross in the case of x<0.6)	X (a cross in the case of x<0.6)	X (a cross in the case of x<0.6)
CC(=O)C=C(C)[O-].Cc1nc(C(C)C)cnc1-c1[c-]cccc1.Cc1nc(C(C)C)cnc1-c1[c-]cccc1.[Ir+3] [Sample 9]	⊚ (a double circle in the case of x≧1.2)	⊚ (a double circle in the case of x≧1.2)	⊚ (a double circle in the case of x≧1.2)	Δ (a triangle in the case of 0.9>x≧0.6)	Δ (a triangle in the case of 0.9>x≧0.6)	X (a cross in the case of x<0.6)	⊚ (a double circle in the case of x≧1.2)
CC(=O)C=C(C)[O-].Cc1cnc(-c2[c-]cc(F)cc2)c(-c2ccc(F)cc2)n1.Cc1cnc(-c2[c-]cc(F)cc2)c(-c2ccc(F)cc2)n1.[Ir+3] [Sample 4]	⊚ (a double circle in the case of x≧1.2)	⊚ (a double circle in the case of x≧1.2)	⊚ (a double circle in the case of x≧1.2)	X (a cross in the case of x<0.6)	X (a cross in the case of x<0.6)	X (a cross in the case of x<0.6)	⊚ (a double circle in the case of x≧1.2)
